Measurements reported in patent US8188101B2 (AstraZeneca AB, priority 2008, dated 2012).

tested on: Aβ42 release; experiment: Aβ release in cells stably expressing APPswe, Meso Scale Discovery electrochemiluminescence assay; type: cell-based, Human; conditions: Homo sapiens, SH-SY5Y, HEK or SH-SY5Y cells stably expressing APPswe, 4-6 hours incubation with test compound
Method: The level of activity of the compounds on Aβ release was tested using the following method:
Compounds were diluted in 100% DMSO and stored at […] prior to use. Human Embryonic Kidney (HEK) or Human Neuroblastoma (SH-SY5Y) cell lines stably expressing APP with the Swedish mutation (APPswe) were cultured using Dulbecco's Modified Eagles medium (DMEM) supplied with […] glucose, Na-pyruvate and GlutaMAX with 10% FBS, 100 U/ml penicillin-streptomycin (PEST) respectively, 1× non-essential amino acids (NEAA), […] Hepes, 100 μg/ml Zeocine. Cells at about 80% confluence were washed with PBS, detached from culture flasks using 1× Trypsin/EDTA diluted in PBS, re-suspended in cell media and plated in 384-well poly-d-lysine coated cell culture plates at about 10000-15000 cells/well, in 25 μL cell media. Optionally, cryo-preserved cells (frozen and stored at −140° C. in 90% cell media and 10% DMSO) were thawed, washed and plated as above. Next the cells were incubated for 15-24 h at 37° C. and 5% CO2, after which cell medium was changed. Fresh medium containing test compound diluted ×200 from prepared compound plate was added to the cells before further incubation for 4-6 hours at 37° C. and 5% CO2. After incubation with test compound the amount of Aβ peptides, including Aβ42, Aβ40, Aβ39, Aβ38 and Aβ37, secreted to the cell medium was analyzed using the electrochemiluminescence assay technology from Meso Scale Discovery Technology, in combination with specific antibodies raised against the different Aβ peptides. Potential cytotoxic effects of the compounds were usually assayed by measuring the ATP content (ViaLight) from cell lysate.

Row | Structure (SMILES) | IC50 [nM]
1 | Cc1nccn1-c1ccc(Nc2nc(CCC3CCCCC3)c3c(n2)CCN(C)C3)cc1 [Example 54, 4-(2-Cyclohexylethyl)-6-methyl-N-(4-(2-methyl-1H-imidazol-1-yl)phenyl)-5,6,7,8-tetrahydropyrido[4,3-d]pyrimidin-2-amine] | 316
2 | Cc1nccn1-c1ccc(Nc2nc3c(c(CC4CCCC4)n2)CN(C)CC3)cc1 [Example 55, 4-(Cyclopentylmethyl)-6-methyl-N-(4-(2-methyl-1H-imidazol-1-yl)phenyl)-5,6,7,8-tetrahydropyrido[4,3-d]pyrimidin-2-amine] | 316
3 | Cc1nccn1-c1ccc(Nc2nc3c(c(Cc4ccccc4F)n2)CN(CCO)CC3)cc1 [Example 56, 2-(4-(2-Fluorobenzyl)-2-(4-(2-methyl-1H-imidazol-1-yl)phenylamino)-7,8-dihydropyrido[4,3-d]pyrimidin-6(5H)-yl)ethanol] | 398
4 | COc1cccc(Cc2nc(Nc3ccc(-n4ccnc4C)cc3)nc3c2CN(CCO)CC3)c1 [Example 57, 2-(4-(3-Methoxybenzyl)-2-(4-(2-methyl-1H-imidazol-1-yl)phenylamino)-7,8-dihydropyrido[4,3-d]pyrimidin-6(5H)-yl)ethanol] | 398
5 | CC(=O)N1CCc2nc(Nc3ccc(-n4ccnc4C)cc3)nc(CCC3CCCCC3)c2C1 [Example 58, 1-(4-(2-Cyclohexylethyl)-2-(4-(2-methyl-1H-imidazol-1-yl)phenylamino)-7,8-dihydropyrido[4,3-d]pyrimidin-6(5H)-yl)ethanone] | 200
6 | CC(=O)N1CCc2nc(Nc3ccc(-n4ccnc4C)cc3)nc(Cc3ccc(C)cc3)c2C1 [Example 59, 1-(2-(4-(2-Methyl-1H-imidazol-1-yl)phenylamino)-4-(4-methylbenzyl)-7,8-dihydropyrido[4,3-d]pyrimidin-6(5H)-yl)ethanone] | 398
7 | CC(=O)N1CCc2nc(Nc3ccc(-n4ccnc4C)cc3)nc(CCc3cccc(F)c3)c2C1 [Example 60, 1-(4-(3-Fluorophenethyl)-2-(4-(2-methyl-1H-imidazol-1-yl)phenylamino)-7,8-dihydropyrido[4,3-d]pyrimidin-6(5H)-yl)ethanone] | 501
8 | Cc1nccn1-c1ccc(Nc2nc3c(c(CC4CCOCC4)n2)CN(C)CC3)cc1 [Example 61, 6-Methyl-N-(4-(2-methyl-1H-imidazol-1-yl)phenyl)-4-((tetrahydro-2H-pyran-4-yl)methyl)-5,6,7,8-tetrahydropyrido[4,3-d]pyrimidin-2-amine] | 10000
9 | Cc1nccn1-c1ccc(Nc2nc3c(c(CC4CCOCC4)n2)CN(CCO)CC3)cc1 [Example 62, 2-(2-(4-(2-Methyl-1H-imidazol-1-yl)phenylamino)-4-((tetrahydro-2H-pyran-4-yl)methyl)-7,8-dihydropyrido[4,3-d]pyrimidin-6(5H)-yl)ethanol] | 10000
10 | CC(=O)N1CCc2nc(Nc3ccc(-n4ccnc4C)cc3)nc(CC3CCOCC3)c2C1 [Example 63, 1-(2-(4-(2-Methyl-1H-imidazol-1-yl)phenylamino)-4-((tetrahydro-2H-pyran-4-yl)methyl)-7,8-dihydropyrido[4,3-d]pyrimidin-6(5H)-yl)ethanone] | 50100
11 | Cc1nccn1-c1ccc(Nc2nc3c(c(Cc4ccc(F)cc4)n2)C[S+]([O-])CC3)cc1 (centres unmarked) [Example 64, 4-(4-Fluorobenzyl)-N-[4-(2-methyl-1H-imidazol-1-yl)phenyl]-7,8-dihydro-5H-thiopyrano[4,3-d]pyrimidin-2-amine 6-oxide] | 1000
12 | COC(c1ccccc1)c1nc(Nc2ccc(-n3ccnc3C)cc2)nc2c1COCC2 (centres unmarked) [Example 65, 4-(Methoxy(phenyl)methyl)-N-(4-(2-methyl-1H-imidazol-1-yl)phenyl)-7,8-dihydro-5H-pyrano[4,3-d]pyrimidin-2-amine] | 316
13 | COC(c1ccccc1)c1nc(Nc2ccc(-n3ccnc3C)cc2)nc2c1CS(=O)(=O)CC2 (centres unmarked) [Example 66, 4-[Methoxy(phenyl)methyl]-N-[4-(2-methyl-1H-imidazol-1-yl)phenyl]-7,8-dihydro-5H-thiopyrano[4,3-d]pyrimidin-2-amine 6,6-dioxide] | 1260
14 | Cc1nccn1-c1ccc(Nc2nc3c(c(CC4CCOCC4)n2)COCC3)cc1 [Example 67, N-(4-(2-Methyl-1H-imidazol-1-yl)phenyl)-4-((tetrahydro-2H-pyran-4-yl)methyl)-7,8-dihydro-5H-pyrano[4,3-d]pyrimidin-2-amine] | 10000
15 | COc1cc(Nc2nc3c(c(Cc4ccccc4)n2)CN(C)CC3)ccc1-n1cnc(C)c1 [Example 68, 4-Benzyl-N-(3-methoxy-4-(4-methyl-1H-imidazol-1-yl)phenyl)-6-methyl-5,6,7,8-tetrahydropyrido[4,3-d]pyrimidin-2-amine] | 20
16 | Cc1nccn1-c1ccc(Nc2nc3c(c(NC4CCCCC4)n2)CN(C)CC3)cc1 [Example 69, N4-Cyclohexyl-6-methyl-N2-(4-(2-methyl-1H-imidazol-1-yl)phenyl)-5,6,7,8-tetrahydropyrido[4,3-d]pyrimidine-2,4-diamine] | 398
17 | Cc1nccn1-c1ccc(N(C)c2nc3c(c(N4c5ccccc5C[C@H]4CO)n2)CN(C)CC3)cc1 [Example 72] | 631
18 | Cc1nccn1-c1ccc(Nc2nc3c(c(NC[C@@H]4CCCO4)n2)CN(C)CC3)cc1 [Example 73, (S)-6-Methyl-N2-(4-(2-methyl-1H-imidazol-1-yl)phenyl)-N4-((tetrahydrofuran-2-yl)methyl)-5,6,7,8-tetrahydropyrido[4,3-d]pyrimidine-2,4-diamine] | 794
19 | Cc1nccn1-c1ccc(Nc2nc3c(c(NC[C@H]4CCCO4)n2)CN(C)CC3)cc1 [Example 74, (R)-6-Methyl-N2-(4-(2-methyl-1H-imidazol-1-yl)phenyl)-N4-((tetrahydrofuran-2-yl)methyl)-5,6,7,8-tetrahydropyrido[4,3-d]pyrimidine-2,4-diamine] | 1000
20 | COc1cc(Nc2nc3c(c(Cc4ccccc4)n2)CN(CCO)CC3)ccc1-n1cnc(C)c1 [Example 75, 2-(4-Benzyl-2-(3-methoxy-4-(4-methyl-1H-imidazol-1-yl)phenylamino)-7,8-dihydropyrido[4,3-d]pyrimidin-6(5H)-yl)ethanol] | 25.1
21 | Cc1nccn1-c1ccc(Nc2nc3c(c(N(CCO)Cc4ccccc4)n2)CN(C)CC3)cc1 [Example 76, 2-(Benzyl(6-methyl-2-(4-(2-methyl-1H-imidazol-1-yl)phenylamino)-5,6,7,8-tetrahydropyrido[4,3-d]pyrimidin-4-yl)amino)ethanol] | 501
22 | CCN(CC1CCCO1)c1nc(Nc2ccc(-n3ccnc3C)cc2)nc2c1CN(CCO)CC2 (centres unmarked) [Example 77, 2-(4-(Ethyl((tetrahydrofuran-2-yl)methyl)amino)-2-(4-(2-methyl-1H-imidazol-1-yl)phenylamino)-7,8-dihydropyrido[4,3-d]pyrimidin-6(5H)-yl)ethanol] | 631
23 | Cc1nccn1-c1ccc(Nc2nc3c(c(N(CCC#N)C4CC4)n2)CN(C)CC3)cc1 [Example 78, 3-(Cyclopropyl(6-methyl-2-(4-(2-methyl-1H-imidazol-1-yl)phenylamino)-5,6,7,8-tetrahydropyrido[4,3-d]pyrimidin-4-yl)amino)propanenitrile] | 1000
24 | Cc1nccn1-c1ccc(Nc2nc3c(c(NCC4CCOCC4)n2)CN(C)CC3)cc1 [Example 79, 6-Methyl-N2-(4-(2-methyl-1H-imidazol-1-yl)phenyl)-N4-((tetrahydro-2H-pyran-4-yl)methyl)-5,6,7,8-tetrahydropyrido[4,3-d]pyrimidine-2,4-diamine] | 1260
25 | OCCN1CCc2nc(Nc3ccc(-c4cnco4)cc3)nc(NC[C@H]3CCCO3)c2C1 [Example 80, (R)-2-(2-(4-(Oxazol-5-yl)phenylamino)-4-((tetrahydrofuran-2-yl)methylamino)-7,8-dihydropyrido[4,3-d]pyrimidin-6(5H)-yl)ethanol] | 158
26 | CCN(CC1CCCO1)c1nc(Nc2ccc(-c3cnco3)cc2)nc2c1CN(CCO)CC2 (centres unmarked) [Example 81, 2-(4-(Ethyl((tetrahydrofuran-2-yl)methyl)amino)-2-(4-(oxazol-5-yl)phenylamino)-7,8-dihydropyrido[4,3-d]pyrimidin-6(5H)-yl)ethanol] | 251
27 | CCN(CC1CCCO1)c1nc(Nc2ccc(-c3cnco3)cc2)nc2c1CN(C)CC2 (centres unmarked) [Example 82, N4-Ethyl-6-methyl-N2-(4-(oxazol-5-yl)phenyl)-N4-((tetrahydrofuran-2-yl)methyl)-5,6,7,8-tetrahydropyrido[4,3-d]pyrimidine-2,4-diamine] | 316
28 | CN1CCc2nc(Nc3ccc(-c4cnco4)cc3)nc(NC[C@@H]3CCCO3)c2C1 [Example 83, (S)-6-Methyl-N2-(4-(oxazol-5-yl)phenyl)-N4-((tetrahydrofuran-2-yl)methyl)-5,6,7,8-tetrahydropyrido[4,3-d]pyrimidine-2,4-diamine] | 158
29 | CN1CCc2nc(Nc3ccc(-c4cnco4)cc3)nc(NC[C@H]3CCCO3)c2C1 [Example 84, (R)-6-Methyl-N2-(4-(oxazol-5-yl)phenyl)-N4-((tetrahydrofuran-2-yl)methyl)-5,6,7,8-tetrahydropyrido[4,3-d]pyrimidine-2,4-diamine] | 158
